Experimental data published in patent US11066447B2, “Aureobasidium derivatives and methods of synthesis” (AureoGen Biosciences, Inc., priority 2016, dated 2021).
≈ marks a conversion by molar mass, not a printed value. Read-outs that look alike come from different tables or passages of the source. Numbered stars: 1 amine (or outer) side, 2 acyl side, 3 side chain; on linkers, the order of the positions; unused ones are H or OH. Square brackets hold non-standard residues; d marks the D form. Peptide text beside a SMILES is read from it. X21 = CC1CCN(c2cc(-c3cccc(C[C@@H](C(=O)[*:2])N(C)[*:1])c3)ccn2)CC1; X26 = CC1CCN(c2cnc(-c3cccc(C[C@@H](C(=O)[*:2])N(C)[*:1])c3)cn2)CC1; X12 = CN(C)c1cc(-c2cccc(C[C@@H](C(=O)[*:2])N(C)[*:1])c2)ccn1; X11 = CN([C@@H](Cc1cccc(-c2cccc3ncccc23)c1)C(=O)[*:2])[*:1]; X22 = CN([C@@H](Cc1cccc(-c2cncc3ccccc23)c1)C(=O)[*:2])[*:1]; X25 = CN([C@@H](Cc1cccc(-c2ccc3cccnc3c2)c1)C(=O)[*:2])[*:1]; Hmp(2R,3S) = CC[C@H](C)[C@@H](O)C(=O)O; NMeVal(β-OH) = CN[C@H](C(=O)O)C(C)(C)O; NMeV = CN[C@H](C(=O)O)C(C)C

Key:
[1] = test system: C. parapsilosis MMX 2323 ATCC 22019; test: MIC assay (CLSI microdilution); assay type: cell-based, Candida parapsilosis
In short: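 Broth microdilution MIC testing of Candida parapsilosis ATCC 22019 followed CLSI methods in RPMI-1640, with or without 0.002% Tween-80. Yeast grown 48 hours at 35° C on Sabouraud dextrose agar was suspended to a 0.5 McFarland standard and diluted 1:100 to roughly 0.5-2.5×10^3 CFU/mL. The MIC was the lowest concentration preventing visible growth.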

A. flavus MMX 5948 = test: MIC/MEC assay (CLSI microdilution); assay type: cell-based; details: Aspergillus flavus, MMX5948, 48 h
In short: (§1)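 Aspergillus spore suspensions, diluted from counted stocks to a final approximately 0.2-2.5×10^4 CFU/mL, were inoculated into RPMI-1640 containing 0.002% Tween-80 holding two-fold drug dilutions. Compounds came from 95% ethanol, amphotericin B (0.06-64 μg/mL) from DMSO. MMX 5280 was also tested without Tween-80.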

[2] = test system: A. fumigatus MMX 6782 ATCC 13073; test: MIC/MEC assay (CLSI microdilution); assay type: cell-based; details: Aspergillus fumigatus, ATCC13073, 48 h
In short: as §1

[3] = test system: A. niger MMX 0624 ATCC 16888; test: MIC/MEC assay (CLSI microdilution); assay type: cell-based; details: Aspergillus niger, ATCC16888, 48 h
In short: as §1

[4] = test system: A. fumigatus MMX 5280 ATCC MYA-3626; test: MIC/MEC assay (CLSI microdilution); assay type: cell-based, Aspergillus fumigatus
In short: as §1

[5] = test system: C. albicans MMX 2000 ATCC 10231; test: MIC assay (CLSI microdilution); assay type: cell-based; details: Candida albicans, ATCC10231, RPMI plus 0.002% Tween-80
[6] = test system: C. albicans MMX 2000 ATCC 10231; test: MIC assay (CLSI microdilution); assay type: cell-based; details: Candida albicans, ATCC10231, RPMI plus 0.002% Tween-80; read-out: MIC
[7] = test system: C. neoformans MMX 0634 ATCC 90112; test: MIC assay (CLSI microdilution); assay type: cell-based; details: Cryptococcus neoformans, ATCC90112, RPMI plus 0.002% Tween-80; read-out: MIC
A. fumigatus MMX 5944 = test: MIC/MEC assay (CLSI microdilution); assay type: cell-based; details: Aspergillus fumigatus, MMX5944, 48 h; for minimal effective concentration: RPMI plus 0.002% Tween-80; for MIC: RPMI plus 0.002% Tween-80, read-out: MIC
In short: as §1

[8] = test system: A. fumigatus MMX 6781 ATCC MYA-4609; test: MIC/MEC assay (CLSI microdilution); assay type: cell-based
In short: as §1

[9] = test system: A. fumigatus from Aureogen; test: MIC/MEC assay (CLSI microdilution); assay type: cell-based; details: Aspergillus fumigatus, 48 h; for minimal effective concentration: RPMI plus 0.002% Tween-80; for MIC: RPMI plus 0.002% Tween-80, read-out: MIC
In short: as §1

[10] = read-out: MEC, RPMI plus 0.002% Tween-80
[11] = ATCC22019, RPMI plus 0.002% Tween-80, read-out: MIC
[12] = ATCC22019, Without Tween-80, read-out: MIC
[13] = RPMI plus 0.002% Tween-80, read-out: MIC
[14] = Aspergillus fumigatus, 48 h, RPMI plus 0.002% Tween-80, read-out: MIC
[15] = Aspergillus fumigatus, RPMI plus 0.002% Tween-80, 48 hr
[16] = RPMI plus 0.002% Tween-80, read-out: MEC
[17] = Aspergillus fumigatus, 48 h, RPMI plus 0.002% Tween-80, read-out: MEC
[18] = Aspergillus fumigatus, 48 h, Without Tween-80, read-out: MIC
[19] = Aspergillus fumigatus, 48 h, Without Tween-80, read-out: MEC
[20] = RPMI plus 0.002% Tween-80, 48 hr

Row | SMILES | MIC [6] [µg/mL] | MIC [7] [µg/mL] | MIC [1, 11] [µg/mL] | MIC [1, 12] [µg/mL] | minimal effective concentration (A. flavus MMX 5948; RPMI plus 0.002% Tween-80) [µg/mL] | MIC (A. flavus MMX 5948; [13]) [µg/mL] | minimal effective concentration (A. fumigatus MMX 5944) [µg/mL] | MIC (A. fumigatus MMX 5944) [µg/mL] | MIC [8, 14] [µg/mL] | minimal effective concentration [8, 15] [µg/mL] | minimal effective concentration [2, 16] [µg/mL] | MIC [2, 13] [µg/mL] | minimal effective concentration [9] [µg/mL] | MIC [9] [µg/mL] | minimal effective concentration [3, 16] [µg/mL] | MIC [3, 13] [µg/mL] | minimal effective concentration [4, 17] [µg/mL] | MIC [4, 14] [µg/mL] | MIC [4, 18] [µg/mL] | minimal effective concentration [4, 19] [µg/mL] | further results
1 | CC[C@H](C)[C@@H]1NC(=O)[C@@H]2CCCN2C(=O)[C@H](Cc2cccc(-c3cccc4ncccc34)c2)N(C)C(=O)[C@H](Cc2ccccc2)NC(=O)[C@H](C(C)C)N(C)C(=O)[C@@H]([C@@H](C)CC)OC(=O)[C@H](C(C)(C)O)N(C)C(=O)[C@H](CC(C)C)NC(=O)[C@H](C(C)C)N(C)C1=O [Compound 28] (cyclo(F[X11]PI[NMeV]L[NMeVal(β-OH)][Hmp(2R,3S)][NMeV])) | – | – | – | – | – | – | – | – | – | – | – | – | – | – | – | – | – | – | – | – | MIC ([1]; ATCC22019, RPMI plus 0.002% Tween-80): 0.06 µg/mL; MIC ([1]; ATCC22019, Without Tween-80): 0.5 µg/mL (≈ 0.407 µM); MIC (A. flavus MMX 5948; RPMI plus 0.002% Tween-80): > 64 µg/mL; MIC ([2]; RPMI plus 0.002% Tween-80): > 64 µg/mL; minimal effective concentration [2, 10]: > 64 µg/mL; MIC ([3]; RPMI plus 0.002% Tween-80): 0.12 µg/mL; minimal effective concentration [3, 10]: 0.12 µg/mL; minimal effective concentration ([4]; Aspergillus fumigatus, 48 h, read-out: MEC, RPMI plus 0.002% Tween-80): > 64 µg/mL; minimal effective concentration ([4]; Aspergillus fumigatus, 48 h, read-out: MEC, Without Tween-80): > 64 µg/mL; MIC ([4]; Without Tween-80, 48 hr): >64/>64 μg/mL; MIC [5]: 0.015 µg/mL
2 | CC[C@H](C)[C@@H]1NC(=O)[C@@H]2CCCN2C(=O)[C@H](Cc2cccc(-c3ccc4cccnc4c3)c2)N(C)C(=O)[C@H](Cc2ccccc2)NC(=O)[C@H](C(C)C)N(C)C(=O)[C@@H]([C@@H](C)CC)OC(=O)[C@H](C(C)(C)O)N(C)C(=O)[C@H](CC(C)C)NC(=O)[C@H](C(C)C)N(C)C1=O [Compound 10] (cyclo(F[X25]PI[NMeV]L[NMeVal(β-OH)][Hmp(2R,3S)][NMeV])) | 0.03 | 0.12 | 0.12 | 1 (≈ 0.814 µM) | 0.5 | 1 | 0.12 | 0.5 | 1 | 0.25 | 0.25 | 1 | 0.25 | 1 | 0.06 | 0.06 | 0.25 | 1 | 2 (≈ 1.63 µM) | – | MEC ([4]; Without Tween-80, 48 hr): 1 µg/mL
3 | CC[C@H](C)[C@@H]1NC(=O)[C@@H]2CCCN2C(=O)[C@H](Cc2cccc(-c3ccnc(N4CCC(C)CC4)c3)c2)N(C)C(=O)[C@H](Cc2ccccc2)NC(=O)[C@H](C(C)C)N(C)C(=O)[C@@H]([C@@H](C)CC)OC(=O)[C@H](C(C)(C)O)N(C)C(=O)[C@H](CC(C)C)NC(=O)[C@H](C(C)C)N(C)C1=O [Compound 23] (cyclo(F[X21]PI[NMeV]L[NMeVal(β-OH)][Hmp(2R,3S)][NMeV])) | 0.06 | 0.25 | 0.12 | 1 (≈ 0.784 µM) | > 64 | > 64 | > 64 | > 64 | > 64 | > 64 | > 64 | > 64 | > 64 | > 64 | 0.12 | 0.25 | > 64 | > 64 | > 64 | > 64 | –
4 | CC[C@H](C)[C@@H]1NC(=O)[C@@H]2CCCN2C(=O)[C@H](Cc2cccc(-c3cnc(N4CCC(C)CC4)cn3)c2)N(C)C(=O)[C@H](Cc2ccccc2)NC(=O)[C@H](C(C)C)N(C)C(=O)[C@@H]([C@@H](C)CC)OC(=O)[C@H](C(C)(C)O)N(C)C(=O)[C@H](CC(C)C)NC(=O)[C@H](C(C)C)N(C)C1=O [Compound 11] (cyclo(F[X26]PI[NMeV]L[NMeVal(β-OH)][Hmp(2R,3S)][NMeV])) | 0.06 | 0.25 | 0.25 | 1 (≈ 0.783 µM) | 1 | > 64 | 2 | > 64 | – | – | 0.5 | > 64 | 2 | > 64 | 0.5 | 0.5 | 8 | > 64 | > 64 | 4 | MEC [8, 20]: 8 µg/mL; MIC [8, 20]: 64 µg/mL
5 | CC[C@H](C)[C@@H]1NC(=O)[C@@H]2CCCN2C(=O)[C@H](Cc2cccc(-c3cncc4ccccc34)c2)N(C)C(=O)[C@H](Cc2ccccc2)NC(=O)[C@H](C(C)C)N(C)C(=O)[C@@H]([C@@H](C)CC)OC(=O)[C@H](C(C)(C)O)N(C)C(=O)[C@H](CC(C)C)NC(=O)[C@H](C(C)C)N(C)C1=O [Compound 29] (cyclo(F[X22]PI[NMeV]L[NMeVal(β-OH)][Hmp(2R,3S)][NMeV])) | 0.008 | 0.06 | 0.06 | 1 (≈ 0.814 µM) | > 64 | > 64 | > 64 | > 64 | > 64 | > 64 | – | > 64 | > 64 | > 64 | 0.12 | 0.12 | > 64 | > 64 | > 64 | > 64 | –
6 | CC[C@H](C)[C@@H]1NC(=O)[C@@H]2CCCN2C(=O)[C@H](Cc2cccc(-c3ccnc(N(C)C)c3)c2)N(C)C(=O)[C@H](Cc2ccccc2)NC(=O)[C@H](C(C)C)N(C)C(=O)[C@@H]([C@@H](C)CC)OC(=O)[C@H](C(C)(C)O)N(C)C(=O)[C@H](CC(C)C)NC(=O)[C@H](C(C)C)N(C)C1=O [Compound 22] (cyclo(F[X12]PI[NMeV]L[NMeVal(β-OH)][Hmp(2R,3S)][NMeV])) | 0.03 | 0.25 | 0.06 | 1 (≈ 0.819 µM) | > 64 | > 64 | > 64 | > 64 | > 64 | > 64 | > 64 | > 64 | > 64 | > 64 | 0.25 | 0.5 | > 64 | > 64 | > 64 | > 64 | –
